Among the data in US20080188478A1, “Compounds Useful In Therapy” (Pfizer Inc., priority 2005, published 2008) are Ki and melting point values, retold here.

The target in data set [1] is human V1A receptor (Homo sapiens, UniProt P37288). The data set is described as follows: V1A filter binding assay ([3H]-AVP binding to CHO-hV1A membranes). The note with it: screen 1.0, Ki by Cheng-Prusoff equation. Here is the method:
1.0 V1A Filter Binding Assay
Receptor binding assays were performed on cellular membranes prepared from CHO cells stably expressing the human V1A receptor, (CHO-hV1A). The CHO-hV1A cell line was kindly provided under a licensing agreement by Marc Thibonnier, Dept. of Medicine, Case Western Reserve University School of Medicine, Cleveland, Ohio. CHO-hV1A cells were routinely maintained at 37° C. in humidified atmosphere with 5% CO2 in DMEM/Hams F12 nutrient mix supplemented with 10% fetal bovine serum, 2 mM L-glutamine, 15 mM HEPES and 400 μg/ml G418. For bulk production of cell pellets, adherent CHO-hV1A cells were grown to confluency of 90-100% in 850 cm^2 roller bottles containing a medium of DMEM/Hams F12 Nutrient Mix supplemented with 10% fetal bovine serum, 2 mM L-glutamine and 15 mM HEPES. Confluent CHO-hV1A cells were washed with phosphate-buffered saline (PBS), harvested into ice cold PBS and centrifuged at 1,000 rpm. Cell pellets were stored at −80° C. until use. When required, the cell pellets were thawed on ice and homogenised in membrane preparation buffer consisting of 50 mM Tris-HCl, pH 7.4, 5 mM MgCl2 and supplemented with a protease inhibitor cocktail, (Roche). The cell homogenate was centrifuged at 1000 rpm, 10 min, 4° C. and the supernatant was removed and stored on ice. The remaining pellet was homogenised and centrifuged as before. The supernatants were pooled and centrifuged at 25,000×g for 30 min at 4° C. The pellet was resuspended in freezing buffer consisting of 50 mM Tris-HCl, pH 7.4, 5 mM MgCl2 and 20% glycerol and stored in small aliquots at −80° C. until use. Protein concentration was determined using Bradford reagent and BSA as a standard.
Protein linearity, followed by saturation binding studies were performed on each new batch of membrane. A membrane concentration was chosen that gave specific binding on the linear portion of the curve. Saturation binding studies were then performed using various concentrations of [^3H]-arginine vasopressin, [^3H]-AVP (0.05 nM-100 nM) and the Kd and Bmax were determined. […] The plates were sealed and counted on a TopCount Microplate Scintillation Counter (Packard Instruments). Non-specific binding (NSB) was determined using 1 μM unlabelled d(CH2)5Tyr(Me)AVP ([β-mercapto-β,β-cyclopentamethylenepropionyl, 0-Me-Tyr^2, Arg^8]-vasopressin) (βMCPVP), (Sigma). The radioligand binding data was analysed using a four parameter logistic equation with the min forced to 0%. […] Specific binding was calculated by subtracting the mean NSB cpm from the mean Total cpm. For test compounds the amount of ligand bound to the receptor was expressed as % bound=(sample cpm−mean NSB cpm)/specific binding cpm×100. […]

The structures appear in SMILES notation.

human V1A receptor, sequence (P37288 whole entry): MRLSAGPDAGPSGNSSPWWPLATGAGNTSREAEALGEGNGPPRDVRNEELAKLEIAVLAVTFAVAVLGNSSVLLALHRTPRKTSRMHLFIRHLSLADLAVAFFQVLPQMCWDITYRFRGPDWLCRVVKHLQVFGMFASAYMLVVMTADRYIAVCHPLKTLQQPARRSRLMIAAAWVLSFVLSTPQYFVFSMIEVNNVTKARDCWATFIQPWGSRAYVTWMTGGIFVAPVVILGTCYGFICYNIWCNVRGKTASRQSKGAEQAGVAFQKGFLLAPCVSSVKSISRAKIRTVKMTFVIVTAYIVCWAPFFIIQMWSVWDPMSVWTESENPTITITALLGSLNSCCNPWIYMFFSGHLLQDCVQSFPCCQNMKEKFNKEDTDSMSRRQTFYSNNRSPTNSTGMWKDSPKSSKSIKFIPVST

Usually Ki stands for the dissociation constant of the complex between target and ligand, obtained from inhibition or displacement. A lower Ki goes with higher affinity. In data set [1], `O=c1oc2cccnc2n1C1CCN(c2nnc(Cn3nccn3)n2-c2ccc(Cl)cc2)CC1` [Example 7, 3-{1-[4-(4-chlorophenyl)-5-(2H-1,2,3-triazol-2-ylmethyl)-4H-1,2,4-triazol-3-yl]piperidin-4-yl}[1,3]oxazolo[4,5-b]pyridin-2(3H)-one] displayed a Ki of 1.1 nM. The term melting point denotes the temperature of the solid-liquid transition. Compound `Cc1nnc(N2CCC(N3c4ccccc4N(C)S3(=O)=O)CC2)n1-c1ccc(Cl)cc1` [Example 18, 1-{1-[4-(4-Chlorophenyl)-5-methyl-4H-1,2,4-triazol-3-yl]piperidin-4-yl}-3-methyl-1,3-dihydro-2,1,3-benzothiadiazole 2,2-dioxide] came in with a melting point of 210 to 212 °C. In data set [1], `Cc1nnc(N2CCN(c3nsc4ccccc34)CC2)n1-c1ccc(Cl)cc1` [Example 20, 3-{4-[4-(4-Chlorophenyl)-5-methyl-4H-1,2,4-triazol-3-yl]piperazin-1-yl}-1,2-benzisothiazole] had a Ki of 0.49 nM. The same measure, in the same setting: the same measure for `FC(F)(F)c1nnc(N2CCN(c3nsc4ccccc34)CC2)n1-c1ccc(Cl)cc1` [Example 22, 3-{4-[4-(4-Chlorophenyl)-5-(trifluoromethyl)-4H-1,2,4-triazol-3-yl]piperazin-1-yl}-1,2-benzisothiazole]: 0.79 nM; for `Cc1nnc(C2CCN(c3noc4cccnc34)CC2)n1-c1ccc(Cl)cc1` [Example 29, 3-{4-[4-(4-Chlorophenyl)-5-methyl-4H-1,2,4-triazol-3-yl]piperidin-1-yl}isoxazolo[4,5-b]pyridine]: 1.04 nM.
